{
  "source": "patent US20090326196A1",
  "about": "(priority 2006, published 2009)",
  "key": {"[1]": {"system": "trypsin (from bovine pancreas, EC 3.4.21.4)", "assay": "1 μg trypsin in 200 μL of PBS buffer (pH 7.4, 10 mM PO4^3−, 150 mM NaCl)", "conditions": "37° C., up to 3 h"}, "[2]": {"target": "DPP IV (from porcine kidney, EC 3.4.14.5) (Sus scrofa, UniProt P22411)", "sequence (P22411 whole entry, the tested form may be a part)": "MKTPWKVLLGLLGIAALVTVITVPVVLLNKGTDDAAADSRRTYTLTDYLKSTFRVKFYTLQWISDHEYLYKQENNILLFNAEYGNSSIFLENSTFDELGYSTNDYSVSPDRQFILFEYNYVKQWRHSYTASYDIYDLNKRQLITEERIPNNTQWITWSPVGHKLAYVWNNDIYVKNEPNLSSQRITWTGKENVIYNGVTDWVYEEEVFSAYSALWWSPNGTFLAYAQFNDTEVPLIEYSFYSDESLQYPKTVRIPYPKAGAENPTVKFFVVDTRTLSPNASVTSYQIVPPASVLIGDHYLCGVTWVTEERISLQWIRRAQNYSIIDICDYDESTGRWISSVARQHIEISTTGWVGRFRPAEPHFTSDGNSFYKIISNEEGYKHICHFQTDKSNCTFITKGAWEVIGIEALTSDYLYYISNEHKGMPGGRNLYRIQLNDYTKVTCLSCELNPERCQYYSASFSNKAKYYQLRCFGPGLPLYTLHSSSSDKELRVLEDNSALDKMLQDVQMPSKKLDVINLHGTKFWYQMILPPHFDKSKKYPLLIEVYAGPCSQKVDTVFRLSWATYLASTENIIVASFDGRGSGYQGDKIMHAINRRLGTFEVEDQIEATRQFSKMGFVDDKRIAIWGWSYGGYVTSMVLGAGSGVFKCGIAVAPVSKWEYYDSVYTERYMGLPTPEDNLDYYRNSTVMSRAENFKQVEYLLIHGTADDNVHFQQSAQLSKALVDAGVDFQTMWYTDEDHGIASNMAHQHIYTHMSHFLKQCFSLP", "conditions": "for hydrolysis products by RP-HPLC (FIG. 38): F8: 48 h at 20 U/L and 1 h at 200 U/L, F89: 20 and 60 mins; for fragments detected after incubation with DPP IV: after 24 h incubation", "protocol": "Proteolytic Stability. […] DPP IV has a relative specific requirement for substrate residues at P2, P1, P1′ and P2′ positions regarding the scissile Ala-Glu amide bond. Especially, at P1 position, Pro and Ala are highly favored. […] The proteolytic stability of peptides towards DPP IV (from porcine kidney, EC 3.4.14.5) was determined by analytical RP-HPLC assay (detection at 230 nm). A chromogenic substrate, Gly-Pro-p-nitroanilide, was employed to calibrate specific activity by measuring absorbance at 410 nm using Δε=8800 M^−1·cm^−1 in 100 mM Tris-HCl, pH 8.0. […] Reactions were quenched with 600 μL of 0.2% TFA at time intervals and stored on dry ice until the analysis. An analytical C18 column [J. T. Baker C18, 5 μm, 4 mm×250 mm] was used for separation and quantitation of intact and digested peptides with a binary solvent system can/H2O/0.1% TFA. First order rate constants were obtained as the fitted value±one standard deviation by fitting with the equation: […]\nwhere A is the concentration of peptides; k the first order rate constant; t the reaction time in min; and [A]0 the initial concentration of peptides. The fragments derived from the full-length peptides were manually collected and identified by ESI-MS."}, "[3]": {"target": "T1, trypsin (from bovine pancreas, EC 3.4.21.4) (Bos taurus, UniProt P00760)", "T1 construct": "trypsin (from bovine pancreas, EC 3.4.21.4); from tissue; host or cells: bovine pancreas", "T1 sequence (P00760 24-246)": "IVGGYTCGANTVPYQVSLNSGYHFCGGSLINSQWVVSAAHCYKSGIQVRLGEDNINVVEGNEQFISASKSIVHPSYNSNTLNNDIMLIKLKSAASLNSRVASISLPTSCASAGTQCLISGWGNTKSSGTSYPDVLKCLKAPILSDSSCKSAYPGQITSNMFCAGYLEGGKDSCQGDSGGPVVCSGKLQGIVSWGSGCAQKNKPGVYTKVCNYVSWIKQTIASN", "assay": "in vitro", "assay_type": "in vitro ADME", "protocol": "The proteolytic stability of peptides towards trypsin (from bovine pancreas, EC 3.4.21.4) was determined by an analytical RP-HPLC assay. […] The enzyme concentration (in 1 mM HCl) was determined by absorbance at 280 nm. […] The amount of enzyme was optimized so that kinetics of proteolytic reactions could be assayed by RP-HPLC (detection at 230 nm). The peptides were incubated with trypsin at 37° C. over a period of 3 h. Aliquots (10 μL) were taken at different reaction times, diluted with 0.2% TFA (440 μL) and stored at −80° C. […] The remaining full-length peptide concentration was normalized with respect to the initial concentration.\nwhere A is the normalized concentration of peptides; k is the pseudo first order rate constant; t is the reaction time in mins; and [A]0 is the initial concentration of peptides. Each fragment cleaved from the full-length peptides was identified by ESI-MS so that cleavage patterns could be established and compared."}, "[4]": {"system": "DPP IV (from porcine kidney, EC 3.4.14.5)", "assay": "DPP IV 20 unit/L in 50 mM Tris-HCl, 1 mM EDTA, pH 7.6", "conditions": "37° C., up to 48 h"}, "[5]": {"system": "trypsin (from bovine pancreas, EC 3.4.21.4)", "assay": "0.5 μg trypsin in 200 μL of PBS buffer (pH 7.4, 10 mM PO4^3−, 150 mM NaCl)", "conditions": "37° C., up to 3 h"}, "[6]": {"system": "human red blood cells (hRBC)", "assay_type": "cell-based", "protocol": "The selectivity with which the peptides are able to lyse bacterial cells compared to mammalian cells was interrogated by a hemolysis assay against human red blood cells (hRBC). […] Our results are consistent with this trend.\nFresh human red blood cells (hRBCs) were centrifuged at 3,500 rpm and washed with PBS buffer until the supernatant was clear. The hRBCs were then resuspended and diluted to a final concentration of 1% (v/v) in PBS and stored at 4° C. […] An aliquot (50 μL) of supernatant was transferred to a new 96-well plate containing 50 μL H2O in each well. The absorbance at 415 nm was measured using a plate reader. Wells containing melittin at 100-400 μg/mL served as positive controls, and wells containing only buffer and hRBCs served as negative controls. The percentage hemolysis was calculated using the equation:\nwhere complete hemolysis is defined as the average absorbance of all wells containing 100-400 μg/[…] melittin."}},
  "note": "Square brackets hold non-standard residues; d marks the D form. Peptide text beside a SMILES is read from it. Leu(5,5,5,5',5',5'-F6) = N[C@@H](CC(C(F)(F)F)C(F)(F)F)C(=O)O",
  "data": [
    {"molecule": "GIGKFLHAAKKFAKAFVAEIMNS", "values": [
      {"measurement": "fragment found", "setting": "[1]", "value": "M2 (1-14), first_seen"}
    ]},
    {"molecule": "CC[C@H](C)[C@H](NC(=O)[C@H](Cc1ccccc1)NC(=O)[C@H](CCC(=O)O)NC(=O)[C@H](CCCCN)NC(=O)[C@H](C)NC(=O)[C@H](C)NC(=O)[C@H](CCC(N)=O)NC(=O)CNC(=O)[C@H](CCC(=O)O)NC(=O)[C@H](CC(C)C)NC(=O)[C@H](Cc1ccc(O)cc1)NC(=O)[C@H](CO)NC(=O)[C@H](CO)NC(=O)[C@@H](NC(=O)[C@H](CC(=O)O)NC(=O)[C@H](CO)NC(=O)[C@@H](NC(=O)[C@H](Cc1ccccc1)NC(=O)[C@@H](NC(=O)CNC(=O)[C@H](CC(C(F)(F)F)C(F)(F)F)NC(=O)[C@H](C)NC(=O)[C@@H](N)Cc1c[nH]cn1)[C@@H](C)O)[C@@H](C)O)C(C)C)C(=O)N[C@@H](C)C(=O)N[C@@H](Cc1c[nH]c2ccccc12)C(=O)N[C@@H](CC(C)C)C(=O)N[C@H](C(=O)N[C@@H](CCCCN)C(=O)NCC(=O)N[C@@H](CCCNC(=N)N)C(N)=O)C(C)C", "note": "[Peptide F9]", "values": [
      {"measurement": "resistance to DPP IV, in words", "setting": "[2]; hexafluoroleucine at P1′ and P2′ positions", "value": "moderate enhanced resistance"}
    ]},
    {"molecule": "magainin 2 [Peptide M2, reference compound]", "values": [
      {"measurement": "time to complete hydrolysis", "setting": "[3]", "value": 33, "unit": "min"}
    ]},
    {"molecule": "CC[C@H](C)[C@H](NC(=O)[C@H](Cc1ccccc1)NC(=O)[C@H](CCC(=O)O)NC(=O)[C@H](CCCCN)NC(=O)[C@H](C)NC(=O)[C@H](C)NC(=O)[C@H](CCC(N)=O)NC(=O)CNC(=O)[C@H](CCC(=O)O)NC(=O)[C@H](CC(C)C)NC(=O)[C@H](Cc1ccc(O)cc1)NC(=O)[C@H](CO)NC(=O)[C@H](CO)NC(=O)[C@@H](NC(=O)[C@H](CC(=O)O)NC(=O)[C@H](CO)NC(=O)[C@@H](NC(=O)[C@H](Cc1ccccc1)NC(=O)[C@@H](NC(=O)CNC(=O)[C@H](CC(C(F)(F)F)C(F)(F)F)NC(=O)[C@H](CC(C(F)(F)F)C(F)(F)F)NC(=O)[C@@H](N)Cc1cnc[nH]1)[C@@H](C)O)[C@@H](C)O)C(C)C)C(=O)N[C@@H](C)C(=O)N[C@@H](Cc1c[nH]c2ccccc12)C(=O)N[C@@H](CC(C)C)C(=O)N[C@H](C(=O)N[C@@H](CCCCN)C(=O)NCC(=O)N[C@@H](CCCNC(=N)N)C(N)=O)C(C)C", "note": "[Peptide F89]", "values": [
      {"measurement": "hydrolysis products by RP-HPLC (FIG. 38)", "setting": "[2]", "value": "No detectable hydrolysis products"},
      {"measurement": "fragments detected after incubation with DPP IV", "setting": "[2]", "value": "no fragments were detected"}
    ]},
    {"molecule": "HXXGTFTSDVSSYLEGQAAKEFIAWLVKGR", "values": [
      {"measurement": "not cleaved", "setting": "[4]", "value": "no fragments were detected after 24 h incubation"}
    ]},
    {"molecule": "HAXGTFTSDVSSYLEGQAAKEFIAWLVKGR", "values": [
      {"measurement": "fragment found", "setting": "[4]", "value": "corresponding peptide fragment GLP-1 (9-36) amide, major"}
    ]},
    {"molecule": "CC(C)C[C@H](NC(=O)CNC(=O)[C@H](C)NC(=O)[C@@H](N)CCCNC(=N)N)C(=O)N[C@@H](CCC(N)=O)C(=O)N[C@@H](Cc1ccccc1)C(=O)N1CCC[C@H]1C(=O)N[C@H](C(=O)NCC(=O)N[C@@H](CCCNC(=N)N)C(=O)N[C@H](C(=O)N[C@@H](Cc1c[nH]cn1)C(=O)N[C@@H](CCCNC(=N)N)C(=O)N[C@@H](CC(C(F)(F)F)C(F)(F)F)C(=O)N[C@@H](CC(C(F)(F)F)C(F)(F)F)C(=O)N[C@@H](CCCNC(=N)N)C(=O)N[C@@H](CCCCN)C(=O)O)C(C)C)C(C)C", "note": "[BII5F2] (H-RAGLQFPVGRVHR[Leu(5,5,5,5',5',5'-F6)][Leu(5,5,5,5',5',5'-F6)]RK-OH)", "values": [
      {"measurement": "fold more resistant to hydrolysis by trypsin", "setting": "[3]", "value": "~3", "unit": "fold"}
    ]},
    {"molecule": "TRSSRAGLQFPVGRVHRXXRK", "values": [
      {"measurement": "cleaved bond", "setting": "[5]", "value": "initial P1 site of cleavage BII1F2 (R14), first_seen"},
      {"measurement": "fragment found", "setting": "[5]", "value": "BII1F2 (6-21), first_seen"}
    ]},
    {"molecule": "buforin II[1-21] [BII1, reference compound]", "values": [
      {"measurement": "initial P1 site of cleavage", "setting": "[3]", "value": "R17"}
    ]},
    {"molecule": "HXEGTFTSDVSSYLEGQAAKEFIAWLVKGR", "values": [
      {"measurement": "not cleaved", "setting": "[4]", "value": "no fragments were detected after 24 h incubation"}
    ]},
    {"molecule": "CC[C@H](C)[C@H](NC(=O)CN)C(=O)NCC(=O)N[C@@H](CCCCN)C(=O)N[C@@H](Cc1ccccc1)C(=O)N[C@@H](CC(C(F)(F)F)C(F)(F)F)C(=O)N[C@@H](Cc1cnc[nH]1)C(=O)N[C@@H](C)C(=O)N[C@@H](C)C(=O)N[C@@H](CCCCN)C(=O)N[C@@H](CCCCN)C(=O)N[C@@H](Cc1ccccc1)C(=O)N[C@@H](C)C(=O)N[C@@H](CCCCN)C(=O)N[C@@H](C)C(=O)N[C@@H](Cc1ccccc1)C(=O)N[C@H](C(=O)N[C@@H](C)C(=O)N[C@@H](CCC(=O)O)C(=O)N[C@@H](CC(C(F)(F)F)C(F)(F)F)C(=O)N[C@@H](CCSC)C(=O)N[C@@H](CC(N)=O)C(=O)N[C@@H](CO)C(N)=O)C(C)C", "note": "[Peptide M2F2] (H-GIGKF[Leu(5,5,5,5',5',5'-F6)]HAAKKFAKAFVAE[Leu(5,5,5,5',5',5'-F6)]MNS-NH2)", "values": [
      {"measurement": "hemolytic activity relative to parent peptide, in words", "setting": "[6]", "value": "slightly more hemolytic"},
      {"measurement": "more stable to proteolysis by a factor, relative to M2", "setting": "[3]", "value": "~1.2"}
    ]},
    {"molecule": "GIGKFXHAAKKFAKAFVAEXMNS", "values": [
      {"measurement": "fragment found", "setting": "[1]", "value": "M2F2 (1-14), first_seen"}
    ]},
    {"molecule": "CC[C@H](C)[C@H](NC(=O)[C@H](Cc1ccccc1)NC(=O)[C@H](CCC(=O)O)NC(=O)[C@H](CCCCN)NC(=O)[C@H](C)NC(=O)[C@H](C)NC(=O)[C@H](CCC(N)=O)NC(=O)CNC(=O)[C@H](CCC(=O)O)NC(=O)[C@H](CC(C)C)NC(=O)[C@H](Cc1ccc(O)cc1)NC(=O)[C@H](CO)NC(=O)[C@H](CO)NC(=O)[C@@H](NC(=O)[C@H](CC(=O)O)NC(=O)[C@H](CO)NC(=O)[C@@H](NC(=O)[C@H](Cc1ccccc1)NC(=O)[C@@H](NC(=O)CNC(=O)[C@H](CCC(=O)O)NC(=O)[C@H](CC(C(F)(F)F)C(F)(F)F)NC(=O)[C@@H](N)Cc1cnc[nH]1)[C@@H](C)O)[C@@H](C)O)C(C)C)C(=O)N[C@@H](C)C(=O)N[C@@H](Cc1c[nH]c2ccccc12)C(=O)N[C@@H](CC(C)C)C(=O)N[C@H](C(=O)N[C@@H](CCCCN)C(=O)NCC(=O)N[C@@H](CCCNC(=N)N)C(N)=O)C(C)C", "note": "[Peptide F8]", "values": [
      {"measurement": "hydrolysis products by RP-HPLC (FIG. 38)", "setting": "[2]", "value": "No detectable hydrolysis products"},
      {"measurement": "fragments detected after incubation with DPP IV", "setting": "[2]", "value": "no fragments were detected"}
    ]}
  ]
}
